# Source: patent US12121525B2, “Methods for treating GI syndrome and graft versus host disease” (Sloan Kettering Institute for Cancer Research, priority 2007, dated 2024)
# Experiments:
# C57BL/6 hepatocytes [1] = assay type: cell-based; conditions: not shown
# Method: Whereas Fas-mediated apoptotic death receptor activation requires generation of ceramide-rich platforms in some cell systems, CTL-induced platform generation was assessed in asmase^+/+ and asmase^−/− hepatocytes in the ex vivo model of GvHD. Alloactivated T cells induced rapid generation of ceramide-rich platforms on the surface of the target hepatocytes 10 min following co-incubation (FIG. 16C). Platform generation increased within one minute, peaked at 10 min, and persisted for over 60 min (FIG. 16D). Fas, required for apoptosis in this system, concentrated within the ceramide-rich platform as determined by confocal microscopy.
# Platforms were detected as previously described. […]; Sigma-Aldrich) for 45 min at 4° C., washed twice in PBS containing 0.1% Triton X-100 and mounted in fluorescent mounting medium (Dako, Carpenteria CA). Fluorescence was detected using an Axiovert S-100 Zeiss fluorescence microscope equipped with a SPOT digital camera. The percentage of cells containing platforms, i.e. those in which the fluorescence condenses onto less than 15% of the cell surface, was determined by counting 150-250 cells per point. Alternately, platforms were identified using a mouse monoclonal anti-ceramide antibody MID 15B4 IgM (1:50 dilution, Alexis Biochemicals), mouse monoclonal anti-Fas CH-11 IgM (1:500 dilution, Upstate Biotechnology) or polyclonal rabbit anti-ASMase antibody 1598 (1:100 dilution) and detected using Cy3-conjugated anti-mouse or anti-rabbit IgM (1:500 dilution, Roche Molecular Biochemicals), respectively. Rabbit polyclonal anti-CD46 (1:1000 dilution, Santa Cruz Biotechnology, Santa Cruz CA) was used as a negative control. In some studies, confocal images were obtained using a Leica TCS SPZ upright confocal microscope. Alternatively, 0.5×10^6hepatocytes were stimulated for the indicated times with CTLs and platform formation was assessed as described.
# C57BL/6 splenocytes [2] = assay: MLR-primed CTL-induced splenocyte lysis (51Cr release); assay type: cell-based, mouse; conditions: 500 nM
# Method: To show the generic role of target cell ASMase in T cell-induced lysis, we used two standardized assays for T cell function; MLR-primed CTL-induced splenocyte lysis (FIG. 17) and in vitro activation-induced cell death (AICD) of T cells (FIG. 18). The role of target cell ASMase was assessed in an in vitro activated MLR, in which C57BL/6 splenocyte target cells of asmase^+/+ or asmase^−/− genotype were stimulated for 48 hrs with mitogen, washed and chromium labeled. These cells were then coincubated with effector Balb/c splenocytes activated for 5 days by culture with irradiated C57BL/6 splenocytes. Chromium release was quantified and the % lysis was calculated. […] Washed splenocytes cells were coincubated with increasing ratios of activated effector Balb/c T cells, and ^51Cr release was quantified 6 hour thereafter. […]
# To evaluate a potential generic role for target cell ASMase in platform generation in T cell-induced lysis, we tested two standardized assays for T cell-mediated cytolysis, MLR-primed CTL-induced splenocyte lysis, and in vitro AICD of T cells. […] Furthermore, MLR-primed CTLs induced 43.2±6.5% asmase^+/+ splenocyte lysis at an effector:target ratio of 50:1 (FIG. 19B), attenuated to 7.3±2.5% lysis in asmase^−/− target cells, as quantified by ^51Cr-release assay. […]
# splenic T cells [3] = assay: Activation-induced cell death (AICD) assay, T cell apoptosis; assay type: cell-based, mouse; conditions: 500 nM; 16 hr
# From the text: To define a role for target cell ASMase in AICD, asmase^+/+, asmase^−/− or MRL.1pr (FasR^−/−) T cells were stimulated for 24 hr with 10 microgam/ml ConA, washed, rested in medium containing 20 U/ml rIL-2 for 24 hr, and finally AICD was initiated by restimulation in medium containing 20 U/ml rIL-2 and increasing concentrations of plate bound anti-CD3 mAb for 24 hr. AICD induction by anti-CD3 mAb conferred ceramide-rich platform generation 4 hr following stimulation (FIG. 19D), evident in 26.4±1.6% of the population of asmase^+/+ T cells compared to 5.1±1.0% of asmase^−/− T cells (p<0.005). Confocal analysis identified colocalization of the sphingolipid GM1 (FIG. 19E) and Fas within ceramide-rich platforms in asmase^+/+ T cells.
# To characterize the impact of platform generation on AICD, asmase^+/+ and asmase^−/− T cells were induced to undergo AICD and apoptosis was quantified 16 hr thereafter. Apoptosis in asmase^+/+ T cells was anti-CD3 mAb dose-dependent, reaching 32.9±5.2% apoptosis 16 hr post induction (FIG. 19F). […]
# Harvested splenocytes were enriched for T lymphocytes by nylon wool passage, resulting in >90% purity based upon FITC-CD3 mAb staining by flow cytometry. […] Cells were subsequently fixed, stained with 25 μl of 24 μg/ml bis-benzimide trihydrochloride solution (Hoechst #33258; Sigma-Aldrich, Milwaukee Wisc.) and apoptosis was quantified by fluorescence microscopy, as above.
# splenic T cells [4] = assay: Platform generation in T cells after AICD induction; conditions: 500 nM; not shown
# C57BL/6 splenocytes [5] = assay: Platform generation on target splenocytes coincubated with MLR-primed CTLs; conditions: 500 nM
# C57BL/6 hepatocytes [6] = assay type: cell-based
# Method: FIGS. 16A-16F. In vivo activated allogeneic CTLs require target hepatocyte ASMase for efficient killing ex vivo. Hepatocytes, isolated as described in Example 1, were coincubated with splenic T cells harvested from lethally-irradiated wild type C57BL/6 recipients 10-14 days following transplantation of LP BM+T cells. FIG. 16A: 2×10^6 GvH-activated CTLs were coincubated with 0.5×10^6 wild type C57BL/6 or B6.MRL.1pr (FasR^−/−) hepatocytes (left panel) in complete medium for 16 hr. […] Apoptosis was quantified following fixation by nuclear bisbenzimide staining. FIG. 16B: asmase^−/− hepatocytes are resistant to apoptosis induced by GvH-activated CTLs. CTL coincubation was performed as in FIG. 16A and apoptosis was quantified 16 hr thereafter. FIG. 16C: Representative images of asmase^+/+ (top left panel) and asmase^−/− (bottom left panel) C57BL/6 hepatocytes following 10 min coincubation in suspension with 2×10^6 GvH-activated T cells. Hepatocytes were fixed and stained with DAPI and Cy-3-labelled anti-ceramide mAb as described in Example 1. Arrows indicate ceramide-rich platform generation on the outer leaflet of the plasma membrane. […] FIG. 16D: Quantification of ceramide-rich platforms in asmase^+/+ and asmase^−/− hepatocytes following incubation with 2×10^6 GvH-activated CTLs. […] Apoptosis was quantified as in FIG. 16A. […] 0.5×10^6 wild type hepatocytes, preincubated with 50 μg/mL nystatin for 30 min and resuspended in RPMI containing 1% lipid-free FBS, were coincubated with 2×10^6 GvH-activated T cells and apoptosis was quantified as in FIG. 16A. […]
# To assess whether ceramide-mediated raft clustering into membrane platforms is an essential component of cytolytic T cell (CTL)-induced apoptosis of hepatocytes, we blocked raft clustering pharmacologically and examined the impact on alloactivated CTL-induced hepatocyte apoptosis in vitro. […] Co-incubation induced increased hepatocyte apoptosis from a baseline of 4.7±0.7% to 33.8±1.9% by 16 hr, as detected by nuclear morphologic changes (FIG. 16A). […]
# C57BL/6 mice = conditions: intravenous, prior to TBI; cited from earlier work
molecule,measurement,setting,value
CCCCCCCCCCCCCCCC(=O)N[C@@H](CO)[C@H](O)CCCCCCCCCCCCCCC [C16-dihydroceramide],CTL-induced platform generation in asmase−/− hepatocytes,C57BL/6 hepatocytes [1],failed to restore
same,CTL-induced lysis of asmase−/− target splenocytes,C57BL/6 splenocytes [2],ineffective
same,apoptosis of asmase−/− T cells stimulated to undergo AICD,splenic T cells [3],not
same,platform generation in asmase−/− T cells stimulated to undergo AICD,splenic T cells [4],not
same,platform generation on asmase−/− target splenocytes,C57BL/6 splenocytes [5],ineffective
"C/C=C/[C@H]1O[C@@](O)([C@@H](C)[C@H](O)[C@H](C)[C@H]2OC(=O)/C(OC)=C/C(C)=C/[C@@H](C)[C@@H](O)[C@@H](CC)[C@@H](O)[C@H](C)C/C(C)=C/C=C/[C@@H]2OC)C[C@@H](O[C@H]2C[C@@H](O)[C@H](OC(N)=O)[C@@H](C)O2)[C@@H]1C [CMA, concanamycin A]",CTL-induced hepatocyte apoptosis,"C57BL/6 hepatocytes [6]; CTLs incubated 2 hr with 100 ng/ml CMA, wild type hepatocytes, 16 hr",no effect
C[C@@H]1[C@H](O)[C@@H](C)/C=C/C=C/CC/C=C/C=C/C=C/C=C/C(O[C@H]2O[C@H](C)[C@@H](O)[C@H](N)[C@@H]2O)CC2O[C@](O)(CC(O)C(O)CCC(O)CC(O)CC(O)CC(=O)O[C@H]1C)CC(O)C2C(=O)O (some centres unmarked) [nystatin],2×10^6 alloactivated CTL-induced hepatocyte apoptosis,C57BL/6 hepatocytes [6]; wild type hepatocytes preincubated with 50 μg/mL nystatin for 30 min,completely inhibited
same,CTL-induced ceramide-rich platform generation,"C57BL/6 hepatocytes [1]; wild type hepatocytes, nystatin 50 μg/mL 30 min",abrogated
bFGF: endothelial cell survival factor,crypt stem cell clonogens,C57BL/6 mice,preserved
same,lethality from the GI syndrome,C57BL/6 mice,protected
same,radiation-induced endothelial apoptosis of the intestinal microvascular system,C57BL/6 mice,attenuated
